Consider eight molecules from patent US7820711B2, “Uses of selective inhibitors of HDAC8 for treatment of T-cell proliferative disorders” (Pharmacyclics Inc., priority 2006, dated 2010).

The subject of assay [1] is Jurkat cells. Briefly: modulation of Compound 23-induced apoptosis in Jurkat cells. Particulars: compound 23 10 μM.
The test system of assay [2] is Jurkat cells. Kind of assay: ratiometric fluorescence calcium imaging, Jurkat cells. In kind it is cell-based, human. Particulars: for effect on compound 23-stimulated increase in intracellular Ca2+ levels: FIG. 11; for intracellular calcium mobilization / time to rise in intracellular calcium: 10 μM, FIG. 10; for dose dependence of calcium mobilization: FIGS. 12 and 13.

Another assay deals with HDAC-1 (Homo sapiens, UniProt Q13547). Kind of assay: in vitro HDAC inhibition, HDAC-1. Type of assay: biochemical.
Another assay has as its target HDAC-2 (Homo sapiens, UniProt Q92769). Kind of assay: in vitro HDAC inhibition, HDAC-2. In kind it is biochemical.
A further assay concerns the target HDAC-3 (Homo sapiens, UniProt O15379). Kind of assay: in vitro HDAC inhibition, HDAC-3. Type of assay: biochemical.
The target in the next assay is T1, HDAC-6 (Homo sapiens, UniProt Q9UBN7).
T1 sequence (Q9UBN7 1-1215): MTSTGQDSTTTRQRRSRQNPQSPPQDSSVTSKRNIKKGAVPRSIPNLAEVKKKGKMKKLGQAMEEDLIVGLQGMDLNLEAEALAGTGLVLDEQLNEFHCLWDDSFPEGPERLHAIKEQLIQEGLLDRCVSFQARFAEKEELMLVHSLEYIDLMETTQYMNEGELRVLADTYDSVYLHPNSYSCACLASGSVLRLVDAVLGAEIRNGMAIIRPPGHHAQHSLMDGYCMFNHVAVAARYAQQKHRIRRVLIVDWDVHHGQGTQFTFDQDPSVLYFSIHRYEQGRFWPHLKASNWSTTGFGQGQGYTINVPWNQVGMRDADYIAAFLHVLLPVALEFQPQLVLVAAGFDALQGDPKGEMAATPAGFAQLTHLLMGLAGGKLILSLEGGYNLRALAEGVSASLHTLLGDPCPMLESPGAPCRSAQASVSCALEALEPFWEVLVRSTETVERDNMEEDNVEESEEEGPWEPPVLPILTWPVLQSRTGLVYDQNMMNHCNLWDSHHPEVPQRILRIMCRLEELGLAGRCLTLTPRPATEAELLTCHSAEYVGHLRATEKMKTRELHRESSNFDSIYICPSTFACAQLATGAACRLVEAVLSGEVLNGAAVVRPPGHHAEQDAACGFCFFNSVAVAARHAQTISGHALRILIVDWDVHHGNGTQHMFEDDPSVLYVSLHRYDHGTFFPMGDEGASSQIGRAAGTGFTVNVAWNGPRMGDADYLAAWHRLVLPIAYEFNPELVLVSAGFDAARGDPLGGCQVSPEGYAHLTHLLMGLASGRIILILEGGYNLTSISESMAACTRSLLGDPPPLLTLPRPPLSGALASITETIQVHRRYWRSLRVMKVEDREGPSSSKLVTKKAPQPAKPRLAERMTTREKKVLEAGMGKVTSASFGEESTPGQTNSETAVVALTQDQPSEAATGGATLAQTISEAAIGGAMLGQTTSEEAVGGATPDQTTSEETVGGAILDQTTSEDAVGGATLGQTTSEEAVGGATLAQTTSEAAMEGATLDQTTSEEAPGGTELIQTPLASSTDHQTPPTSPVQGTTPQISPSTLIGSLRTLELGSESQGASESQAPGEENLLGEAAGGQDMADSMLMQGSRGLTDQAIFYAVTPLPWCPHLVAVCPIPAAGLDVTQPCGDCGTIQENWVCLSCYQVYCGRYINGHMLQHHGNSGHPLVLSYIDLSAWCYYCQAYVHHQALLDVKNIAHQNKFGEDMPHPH
Kind of assay: in vitro HDAC inhibition, HDAC-6. Type of assay: biochemical.

The target of a further assay is T2, HDAC-8 (Homo sapiens, UniProt Q9BY41).
T2 sequence (Q9BY41 1-377): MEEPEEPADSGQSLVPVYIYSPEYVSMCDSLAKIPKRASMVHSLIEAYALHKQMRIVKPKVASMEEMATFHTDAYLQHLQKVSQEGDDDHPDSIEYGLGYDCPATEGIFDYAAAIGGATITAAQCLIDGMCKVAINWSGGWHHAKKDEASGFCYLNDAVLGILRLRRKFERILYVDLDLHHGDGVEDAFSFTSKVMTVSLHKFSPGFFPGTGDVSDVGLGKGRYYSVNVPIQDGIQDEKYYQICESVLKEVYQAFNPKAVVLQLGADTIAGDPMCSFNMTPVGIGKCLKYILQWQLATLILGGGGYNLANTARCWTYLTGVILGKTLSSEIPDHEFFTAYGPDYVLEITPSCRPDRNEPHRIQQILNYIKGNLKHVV
Briefly: in vitro HDAC inhibition, HDAC-8. In kind it is biochemical.

Another assay has as its target T3, HDAC-10 (Homo sapiens, UniProt Q969S8).
T3 sequence (Q969S8 1-669): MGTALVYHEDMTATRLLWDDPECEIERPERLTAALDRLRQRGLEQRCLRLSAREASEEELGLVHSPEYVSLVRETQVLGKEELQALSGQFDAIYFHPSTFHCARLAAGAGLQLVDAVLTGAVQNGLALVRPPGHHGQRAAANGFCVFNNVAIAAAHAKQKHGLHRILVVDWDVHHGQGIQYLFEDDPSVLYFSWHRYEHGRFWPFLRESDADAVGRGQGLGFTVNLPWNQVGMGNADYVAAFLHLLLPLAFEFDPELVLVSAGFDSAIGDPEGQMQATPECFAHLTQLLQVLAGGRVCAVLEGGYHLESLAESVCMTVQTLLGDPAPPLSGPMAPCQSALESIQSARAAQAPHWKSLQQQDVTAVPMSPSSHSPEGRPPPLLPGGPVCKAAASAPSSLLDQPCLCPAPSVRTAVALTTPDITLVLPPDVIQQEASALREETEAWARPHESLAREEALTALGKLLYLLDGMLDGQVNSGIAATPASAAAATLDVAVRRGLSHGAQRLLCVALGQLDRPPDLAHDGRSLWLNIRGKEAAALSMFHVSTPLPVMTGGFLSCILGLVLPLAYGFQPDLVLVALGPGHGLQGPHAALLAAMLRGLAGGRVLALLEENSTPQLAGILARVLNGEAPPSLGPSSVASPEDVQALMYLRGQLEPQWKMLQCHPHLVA
Briefly: in vitro HDAC inhibition, HDAC-10. In kind it is biochemical.

Assay [3] has as its system PLC-γ1-deficient Jurkat J.γ1 cells. Kind of assay: ratiometric fluorescence calcium imaging, J.γ1 cells. Particulars: FIG. 14. In kind it is cell-based, human.
In assay [4] the test system is Ramos cells. Kind of assay: ratiometric fluorescence calcium imaging, Ramos cells. Type of assay: cell-based. As to conditions: FIG. 15.
In assay [5] the test system is Ramos cells. Kind of assay: apoptosis in Ramos cells. In kind it is cell-based.
The test system of assay [6] is J.g1 (Phospholipase C-g1 deficient Jurkat). Kind of assay: Apoptosis in J.g1 cells.
Assay [7] deals with P116 (ZAP-70 deficient Jurkat). Kind of assay: Apoptosis in P116 cells.
The next assay has as its system Jurkat WT. Kind of assay: Apoptosis in Jurkat WT cells.
The test system of assay [8] is J.RT3-T.5 (TCR-b chain deficient Jurkat). Briefly: Apoptosis in J.RT3-T.5 cells.
Assay [9] concerns PLC-deficient J.γ1 Jurkat cells. Briefly: cytochrome C translocation from mitochondria to cytosol, J.γ1 Jurkat. As to conditions: HDAC inhibitors 12 or 24 hours, FIG. 9.
The next assay concerns wild type Jurkat cells. Briefly: cytochrome C translocation from mitochondria to cytosol, wild type Jurkat. Particulars: HDAC inhibitors 12 or 24 hours, FIG. 9.

Sequence of HDAC-3 (O15379 whole entry): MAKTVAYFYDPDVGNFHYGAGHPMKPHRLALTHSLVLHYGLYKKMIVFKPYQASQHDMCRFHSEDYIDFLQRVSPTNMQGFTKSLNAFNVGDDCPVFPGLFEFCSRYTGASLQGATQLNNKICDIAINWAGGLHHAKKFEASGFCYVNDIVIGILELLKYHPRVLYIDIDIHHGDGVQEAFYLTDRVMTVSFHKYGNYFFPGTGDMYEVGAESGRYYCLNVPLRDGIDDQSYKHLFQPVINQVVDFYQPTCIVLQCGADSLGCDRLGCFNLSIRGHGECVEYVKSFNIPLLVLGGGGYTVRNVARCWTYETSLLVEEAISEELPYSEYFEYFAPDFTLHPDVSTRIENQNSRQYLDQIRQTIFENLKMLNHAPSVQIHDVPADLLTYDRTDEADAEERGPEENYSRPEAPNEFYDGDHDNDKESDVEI
Sequence of HDAC-3 (Q9Y618 395-489 partner limits assumed): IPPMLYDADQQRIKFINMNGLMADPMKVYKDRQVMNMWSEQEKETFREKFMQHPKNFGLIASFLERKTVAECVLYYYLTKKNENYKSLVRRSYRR
Sequence of HDAC-2 (Q92769 whole entry): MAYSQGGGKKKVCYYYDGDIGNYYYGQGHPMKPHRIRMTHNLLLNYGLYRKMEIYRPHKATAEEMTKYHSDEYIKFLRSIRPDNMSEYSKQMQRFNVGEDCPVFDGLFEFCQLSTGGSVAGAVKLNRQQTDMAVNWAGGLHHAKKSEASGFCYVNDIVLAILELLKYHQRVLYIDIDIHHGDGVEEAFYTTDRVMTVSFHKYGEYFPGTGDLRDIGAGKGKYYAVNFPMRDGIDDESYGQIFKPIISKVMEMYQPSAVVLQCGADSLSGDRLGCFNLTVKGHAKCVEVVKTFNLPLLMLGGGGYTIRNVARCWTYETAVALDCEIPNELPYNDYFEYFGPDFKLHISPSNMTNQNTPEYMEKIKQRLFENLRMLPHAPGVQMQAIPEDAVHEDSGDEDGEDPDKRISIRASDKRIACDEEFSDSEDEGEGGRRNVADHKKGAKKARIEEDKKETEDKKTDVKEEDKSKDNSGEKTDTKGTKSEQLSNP
Sequence of HDAC-1 (Q13547 whole entry): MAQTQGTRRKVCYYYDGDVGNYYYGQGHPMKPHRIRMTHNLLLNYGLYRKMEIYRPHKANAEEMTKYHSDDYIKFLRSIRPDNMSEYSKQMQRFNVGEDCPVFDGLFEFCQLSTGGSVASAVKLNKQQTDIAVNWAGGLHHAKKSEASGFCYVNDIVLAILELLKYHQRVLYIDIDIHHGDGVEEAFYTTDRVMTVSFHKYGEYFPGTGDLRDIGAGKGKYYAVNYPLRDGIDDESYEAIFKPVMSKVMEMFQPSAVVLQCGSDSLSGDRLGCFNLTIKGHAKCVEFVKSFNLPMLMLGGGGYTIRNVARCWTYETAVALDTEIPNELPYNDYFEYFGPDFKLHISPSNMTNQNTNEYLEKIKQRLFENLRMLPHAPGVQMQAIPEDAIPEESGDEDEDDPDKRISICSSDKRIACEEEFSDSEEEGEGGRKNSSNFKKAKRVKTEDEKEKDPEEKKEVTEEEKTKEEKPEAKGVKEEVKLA

`C/C=C(/C)C(=O)O[C@H]1C(C)=C2[C@H]([C@@H]1OC(=O)CCCCCCC)[C@@](C)(OC(C)=O)C[C@H](OC(=O)CCC)[C@@]1(O)[C@H]2OC(=O)[C@@]1(C)O` [thapsigargin]: the “effect on Compound 23-induced apoptosis” value with Jurkat cells [1] (thapsigargin 0.2 μM, FIG. 8(A)) was “enhanced apoptosis”.

In the case of `COc1ccc2c(c1)CC[C@@H]1[C@@H]2CC[C@]2(C)[C@@H](NCCCCCCN3C(=O)C=CC3=O)CC[C@@H]12` [Compound U-73122], in the assay with Jurkat cells [2], the “effect on compound 23-stimulated increase in intracellular Ca2+ levels” value is “strongly inhibited”. In the assay with Jurkat cells [1] (FIG. 7), the “effect on Compound 23-induced apoptosis” value was “inhibited Compound 23-induced apoptosis in a dose-dependent manner”.

For the molecule `CC(=O)OCOC(=O)CN(CC(=O)OCOC(C)=O)c1ccccc1OCCOc1ccccc1N(CC(=O)OCOC(C)=O)CC(=O)OCOC(C)=O` [BAPTA-AM], the “effect on Compound 23-induced apoptosis” value in the assay on Jurkat cells [1] (BAPTA-AM 0.5 μM, FIG. 8(B)) is reported as “diminished apoptosis”.

With `Cn1cc(Cc2ccc(F)cc2)c2cc(C(=O)NO)ccc21` [Compound 33, 1-methyl-3-(4-fluoro-phenylmethyl)-1H-indole-5-carboxylic acid hydroxyamide], the IC50 against HDAC-1 came to 2600 nM; at HDAC-2 it was 23000 nM; on HDAC-3, 1500 nM; on HDAC-6, 360 nM; at HDAC-8 it was 24 nM; at HDAC-10, 5300 nM. For the same molecule, the “HDAC8 IC50 fold lower than the next lowest HDAC target IC50” value at HDAC-8 (vs HDACs 1, 2, 3, 6, 10) was ~15 fold.

For `COc1ccc2c(c1)CC[C@@H]1[C@@H]2CC[C@]2(C)[C@@H](NCCCCCCN3C(=O)CCC3=O)CC[C@@H]12` [Compound U-73343], in the assay on Jurkat cells [2], the “effect on compound 23-stimulated increase in intracellular Ca2+ levels” value is recorded as “not”. Besides, the “effect on Compound 23-induced apoptosis” value with Jurkat cells [1] (FIG. 7) was “failed to block”.

With `CN(C)Cc1c(C(=O)NCCOc2ccc(C(=O)NO)cc2)oc2ccccc12` [CRA-024781], in the assay with Jurkat cells [2], the intracellular calcium mobilization result was “sustained rise in intracellular calcium”, the “time to rise in intracellular calcium” value was “approximately 1 minute” and the “dose dependence of calcium mobilization” value was “dose dependent”. For the same molecule, the “effect on intracellular Ca2+” value in assay [3] is listed as “completely abolished”. Also, the intracellular calcium levels result in the assay on Ramos cells [4] is on record as “robust increase”.

Turning to `COc1ccc(Cn2ccc3ccc(C(=O)NO)cc32)cc1` [Compound 23, 1-(4-methoxy-phenylmethyl)-1H-indole-6-carboxylic acid hydroxyamide], in the assay with Jurkat cells [2], the intracellular calcium mobilization result is listed as “sustained rise in intracellular calcium”. The “time to rise in intracellular calcium” value in the assay on Jurkat cells [2] is “approximately 1 minute”. In addition, the “dose dependence of calcium mobilization” value in the assay on Jurkat cells [2] is “dose dependent”. Further, the “effect on intracellular Ca2+” value in [3] is “completely abolished”. Also, in the assay with Ramos cells [4], the intracellular calcium levels result is listed as “did not alter resting calcium levels”. In addition, the induction of apoptosis entry in the assay on Ramos cells [5] is given as “failure to induce apoptosis”. For the same molecule, the “Apoptosis at 5 μM” value in [6] is reported as 12%; in assay [7], 82%; in the assay with Jurkat WT, 43%; in assay [8], 67%. Further, the “cytochrome C translocation from mitochondria to cytosol” value in assay [9] is listed as “failed to alter the localization”; in the assay on wild type Jurkat cells, “induced translocation”.

B1: FasL: a pro-apoptotic protein (protein, UniProt P48023 130-281, looked up)
Tumor necrosis factor ligand …: QIGHPSPPPEKKELRKVAHLTGKSNSRSMPLEWEDTYGIVLLSGVKYKKGGLVINETGLYFVYSKVYFRGQSCNNLPLSHKVYMRNSKYPQDLVMMEGKMMSYCTTGQMWARSSYLGAVFNLTSADHLYVNVSELSLVNFEESQTFFGLYKL
Consider B1, for which the “cytochrome C translocation from mitochondria to cytosol” value (in assay [9]; with wild type Jurkat cells) was “effectively induced translocation” throughout.
